Laboratory results reported in ChEMBL document CHEMBL1201862, “PubChem BioAssay data set” (2004).
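Step 1: Grow cells in 96-well plates. Step 2: Expose to compound for 48 hours at 5 concentrations. Step 3: Interpolate endpoints linearly; if unreached, use highest concentration. At the GI50, growth is halved.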 Activity calls are given as the source filed them. Rule as the data show it: active = GI50 up to about 1.1 µM and inactive = higher.

What was measured:
Assay in all cases: NCI tumour cell line growth inhibition, 48 h
NCI-H460 = tested on: NCI-H460
CCRF-CEM = tested on: CCRF-CEM
SNB-75 = tested on: SNB-75
SW-620 = tested on: SW-620
NCI-H23 = tested on: NCI-H23
SK-MEL-5 = tested on: SK-MEL-5
CAKI-1 = tested on: CAKI-1
SR = tested on: SR
RXF 393 = tested on: RXF 393
Malme-3M = tested on: Malme-3M
NCI-H226 = tested on: NCI-H226
U-251 = tested on: U-251
KM12 = tested on: KM12
ACHN = tested on: ACHN
OVCAR-5 = tested on: OVCAR-5
MDA-MB-435 = tested on: MDA-MB-435
UACC-62 = tested on: UACC-62
HOP-62 = tested on: HOP-62
OVCAR-3 = tested on: OVCAR-3
BT-549 = tested on: BT-549

Measured: GI50

CC(=O)NCC1(c2ccccc2)CCN(CC2COc3ccccc3O2)CC1 (stereo not drawn) [ACOXATRINE]
inactive: NCI-H460 > 100 µM | CCRF-CEM > 100 µM | SNB-75 > 100 µM | SW-620 > 100 µM | NCI-H23 > 100 µM | SK-MEL-5 > 100 µM | CAKI-1 > 100 µM | SR > 100 µM | RXF 393 > 100 µM | Malme-3M > 100 µM | NCI-H226 > 100 µM | U-251 > 100 µM | KM12 > 100 µM | ACHN > 100 µM | OVCAR-5 > 100 µM | MDA-MB-435 > 100 µM | UACC-62 > 100 µM | HOP-62 > 100 µM | OVCAR-3 > 100 µM

O=C(Cc1ccccc1)NNc1nc(NNC(=O)c2ccncc2)nc(Nc2ccccc2)n1
inactive: NCI-H460 > 10 µM | CCRF-CEM > 10 µM | SNB-75 > 10 µM | CAKI-1 > 10 µM | BT-549 > 10 µM | SR > 10 µM | Malme-3M > 10 µM | U-251 > 10 µM | KM12 > 10 µM | UACC-62 > 10 µM | HOP-62 > 10 µM

Cc1nn2c(=O)n(-c3cccc(-n4nnc5c(-c6ccccc6)c(C)nn5c4=O)c3C)nnc2c1-c1ccccc1
inactive: NCI-H460 18.5 µM | CCRF-CEM 19.9 µM | SNB-75 37.4 µM | SW-620 20.6 µM | NCI-H23 98.4 µM | SK-MEL-5 16.6 µM | CAKI-1 39.4 µM | SR 12.9 µM | RXF 393 34.6 µM | Malme-3M 14.2 µM | NCI-H226 45.3 µM | U-251 25.2 µM | KM12 > 10 µM | ACHN 18.7 µM | OVCAR-5 > 100 µM | UACC-62 46.1 µM | HOP-62 97.7 µM | OVCAR-3 6.95 µM

CC(=O)OC1[C@H](OC(C)=O)C2=C(C)[C@@H](OC(C)=O)C[C@@]2(C(C)(C)O)[C@@H](OC(C)=O)[C@H]2[C@@]1(C)[C@@H](OC(C)=O)CC(OC(C)=O)[C@]21CO1 (stereo partly drawn)
inactive: CCRF-CEM > 100 µM | SNB-75 > 100 µM | SW-620 > 100 µM | NCI-H23 > 100 µM | SK-MEL-5 > 100 µM | CAKI-1 > 100 µM | SR > 100 µM | RXF 393 > 100 µM | Malme-3M > 100 µM | NCI-H226 > 100 µM | U-251 > 100 µM | KM12 > 100 µM | ACHN > 100 µM | OVCAR-5 > 100 µM | MDA-MB-435 > 100 µM | UACC-62 > 100 µM | HOP-62 > 100 µM | OVCAR-3 > 100 µM

CCCCCCCCCC(=O)Oc1cccc2onc(C)c12
inactive: NCI-H460 > 100 µM | CCRF-CEM > 100 µM | SNB-75 > 100 µM | SW-620 > 100 µM | NCI-H23 > 100 µM | SK-MEL-5 > 100 µM | CAKI-1 > 100 µM | SR 49 µM | RXF 393 > 100 µM | Malme-3M > 100 µM | NCI-H226 88.9 µM | U-251 > 100 µM | KM12 77.4 µM | ACHN > 100 µM | OVCAR-5 > 100 µM | UACC-62 > 100 µM | HOP-62 > 100 µM | OVCAR-3 > 100 µM

c1ccc(/N=c2/sc3ccccc3s/c2=N/c2ccccc2)cc1
inactive: NCI-H460 1.96 µM | CCRF-CEM > 100 µM | SNB-75 2.82 µM | SW-620 1.72 µM | NCI-H23 1.96 µM | SK-MEL-5 1.99 µM | CAKI-1 1.87 µM | SR 3.35 µM | RXF 393 1.82 µM | Malme-3M 1.86 µM | NCI-H226 2.88 µM | U-251 1.86 µM | KM12 1.99 µM | ACHN 1.66 µM | OVCAR-5 2.11 µM | MDA-MB-435 1.9 µM | UACC-62 1.36 µM | HOP-62 4.45 µM

O=C(O)CCSC(=O)Nc1cccc2ccccc12
inactive: NCI-H460 > 100 µM | CCRF-CEM > 100 µM | SNB-75 > 100 µM | SW-620 > 100 µM | NCI-H23 > 100 µM | SK-MEL-5 > 100 µM | CAKI-1 > 100 µM | SR > 100 µM | RXF 393 > 100 µM | Malme-3M > 100 µM | NCI-H226 > 100 µM | U-251 > 100 µM | KM12 > 100 µM | ACHN > 100 µM | OVCAR-5 > 100 µM | UACC-62 > 100 µM | HOP-62 > 100 µM | OVCAR-3 > 100 µM

CC1(C)O[C@@H](CO)[C@H]([C@@]23OC[C@H]4OC(C)(C)OC4[C@@H]2OC(C)(C)O3)O1 (stereo partly drawn)
inactive: NCI-H460 > 100 µM | SNB-75 > 100 µM | SW-620 > 100 µM | NCI-H23 > 100 µM | SK-MEL-5 20.3 µM | SR > 100 µM | RXF 393 > 100 µM | Malme-3M > 100 µM | NCI-H226 > 100 µM | U-251 > 100 µM | KM12 > 100 µM | ACHN > 100 µM | OVCAR-5 > 100 µM | MDA-MB-435 > 100 µM | HOP-62 > 100 µM | OVCAR-3 > 100 µM

Cc1ccc(NC2=NCCO2)c2c1CCC2
inactive: NCI-H460 27.5 µM | CCRF-CEM 37.2 µM | SNB-75 32.9 µM | SW-620 46.9 µM | NCI-H23 32.2 µM | SK-MEL-5 17.5 µM | CAKI-1 > 100 µM | SR 22.1 µM | RXF 393 26.8 µM | Malme-3M 27.8 µM | NCI-H226 32.4 µM | U-251 39.4 µM | KM12 30.3 µM | ACHN 85.3 µM | OVCAR-5 26 µM | MDA-MB-435 20.5 µM | UACC-62 30.7 µM | HOP-62 27.9 µM | OVCAR-3 21.6 µM

CC(C)(C)OC(=O)NC(CO)c1cccc(OCc2ccccc2)c1 (stereo not drawn)
inactive: NCI-H460 35.3 µM | CCRF-CEM 31.7 µM | SNB-75 > 100 µM | SW-620 > 90.4 µM | NCI-H23 > 65.5 µM | SK-MEL-5 28.2 µM | CAKI-1 > 100 µM | SR 86.3 µM | RXF 393 > 100 µM | Malme-3M 63 µM | NCI-H226 > 100 µM | U-251 94.6 µM | KM12 > 100 µM | ACHN 71.4 µM | OVCAR-5 > 100 µM | UACC-62 33 µM | HOP-62 > 82.4 µM | OVCAR-3 > 100 µM

O=NN(CCCl)C(=O)N[C@H]1CC[C@@H](C(=O)O)CC1
inactive: NCI-H460 49.3 µM | CCRF-CEM 36.6 µM | SNB-75 > 72.3 µM | SW-620 > 76.6 µM | NCI-H23 97.7 µM | SK-MEL-5 > 100 µM | CAKI-1 92.9 µM | SR 40.2 µM | RXF 393 > 100 µM | Malme-3M > 96.2 µM | NCI-H226 > 100 µM | U-251 40.9 µM | KM12 > 100 µM | ACHN 65.6 µM | OVCAR-5 > 100 µM | UACC-62 21.3 µM | HOP-62 83 µM | OVCAR-3 > 100 µM

O=C(Cc1ccccc1)NN1C(=O)C(Cl)C1c1ccc(O)cc1 (stereo not drawn)
inactive: NCI-H460 > 100 µM | CCRF-CEM > 100 µM | SNB-75 47.2 µM | SW-620 > 100 µM | NCI-H23 > 100 µM | SK-MEL-5 > 100 µM | CAKI-1 > 100 µM | SR 43.1 µM | RXF 393 > 100 µM | Malme-3M > 100 µM | NCI-H226 > 100 µM | U-251 > 100 µM | KM12 > 100 µM | ACHN > 100 µM | OVCAR-5 > 100 µM | UACC-62 > 100 µM | HOP-62 > 100 µM | OVCAR-3 > 100 µM

Cn1cnc([N+](=O)[O-])c1Sc1nc2cccnc2[nH]1
inactive: NCI-H460 > 100 µM | CCRF-CEM 14.5 µM | SNB-75 > 100 µM | SW-620 49.9 µM | NCI-H23 88.7 µM | SK-MEL-5 > 100 µM | CAKI-1 18.3 µM | SR 35.9 µM | RXF 393 97.5 µM | Malme-3M > 100 µM | NCI-H226 > 100 µM | U-251 > 100 µM | KM12 54.1 µM | ACHN > 100 µM | OVCAR-5 > 100 µM | UACC-62 67.6 µM | HOP-62 > 100 µM | OVCAR-3 > 100 µM

O=C(/C=C/c1ccc(Cl)cc1)c1nc2ccccc2[nH]1
inactive: NCI-H460 53 µM | CCRF-CEM 3.54 µM | SNB-75 11.7 µM | SW-620 13.4 µM | NCI-H23 48.8 µM | SK-MEL-5 40.2 µM | CAKI-1 3.44 µM | BT-549 32.9 µM | Malme-3M > 100 µM | NCI-H226 27.5 µM | KM12 1.6 µM | ACHN 48.9 µM | OVCAR-5 95.7 µM | MDA-MB-435 12.2 µM | UACC-62 35.9 µM | HOP-62 17.6 µM | OVCAR-3 12.9 µM

Cn1nc2n(c1=O)CCCN2
inactive: NCI-H460 > 100 µM | CCRF-CEM > 100 µM | SNB-75 > 100 µM | SW-620 > 100 µM | NCI-H23 > 100 µM | SK-MEL-5 > 100 µM | SR > 100 µM | RXF 393 > 100 µM | Malme-3M > 100 µM | NCI-H226 > 100 µM | U-251 > 100 µM | KM12 > 100 µM | ACHN > 100 µM | OVCAR-5 > 100 µM | MDA-MB-435 > 100 µM | HOP-62 > 100 µM | OVCAR-3 > 100 µM

Cc1ccc2n(c1)cc(-c1ccc(/C=N/NC(=N)N/N=C/c3ccc(-c4cn5cc(C)ccc5[n+]4C)cc3)cc1)[n+]2C
inactive: NCI-H460 80.2 µM | CCRF-CEM > 100 µM | SNB-75 20.9 µM | SW-620 > 100 µM | SK-MEL-5 41.1 µM | SR > 100 µM | U-251 > 100 µM | KM12 > 100 µM | ACHN 40.2 µM | OVCAR-5 > 100 µM | MDA-MB-435 35.6 µM | HOP-62 > 100 µM
